Tests used:
[1] = tested on: Small cell lung carcinoma NCI-H82; test: MTT proliferation assay, small cell lung carcinoma; format: cell-based; conditions: Homo sapiens, treatment initially, after 48 hours, 10% FBS, read-out: Mean Percent Inhibition of Growth
Experimental: (§1) Human malignant cell lines were obtained from American Type Tissue Culture Collection (Rockville, Md.). Melanoma cells lines CRL 1585 and 1619 were cultured in RPMI 1640 (GIBCO-BRL, Life Technologies, Grand Island, N.Y.) with 10% FBS and passed with nonenzymatic Cell Dissociation Solution® (Sigma). The prostate adenocarcinoma cell line CRL 1435 (PC-3) was also cultured in RPMI 1640 with 10% FBS but passed with 0.05% trypsin and 0.53 mM EDTA. The squamous lung carcinoma NCI-H520 and the adenosquamous lung carcinoma NCI-H596 cell lines were grown in RPMI 1640 supplemented with 10% FBS, 10 mM HEPES and 1.0 mM sodium pyruvate and passed with trypsin/EDTA. The small cell lung carcinoma NCI-H82 was cultured as a suspension in RPMI 1640 with 10% FBS. All of the above were grown in a 37° C. humidified environment containing 5% CO2/air. The breast carcinoma cell line MDA-MB-453 was grown in a 37° C. humidified environment with free gas exchange with atmospheric air using Leibovitz's L-15 medium with 2 mM L-glutamine and 10% FBS and was passed with trypsin/EDTA.
(§2) The effect of disulfiram (0.15 to 5.0 μM), diethyldithiocarbamate (DDC, 1.0 μM) or PDTC (0.625 to 5.0 μM) on proliferation of malignant cell lines was studied in cultures stimulated with 10% FBS. Cell numbers were quantitated 24-72 hours later. In some experiments disulfiram or PDTC were added immediately after cells were plated. In other experiments, cells were plated and allowed to grow for 24-72 hours before fresh media with disulfiram or PDTC was added, and cell numbers were assayed 24-72 hours later. […]
(§3) Proliferation of cultured cells was quantitated using a previously reported calorimetric method based upon metabolic reduction of the soluble yellow tetrazolium dye 3-[4,5-dimethylthiazol]-2yl-2,5-diphenyl tetrazolium bromide (MTT) to its insoluble purple formazan by the action of mitochondrial succinyl dehydrogenase (See, e.g., S. J. Hirst, et al., “Quantifying proliferation of cultured human and rabbit airway smooth muscle in response to serum and platelet derived growth factor,” Am. J. Respir. Cell Mol. Biol. 7:574-581 (1992); R. Dashtaki, et al. R., supra; S. S. Brar, et al., “Requirement for reactive oxygen species in serum-induced and platelet-derived growth factor-induced growth of airway smooth muscle,” J. Biol. Chem. 274:20017-20026 (1999)). […] MTT-containing medium was removed, 0.5 ml dimethylsulfoxide (DMSO) was added to each well, and the absorbance of the solubilized purple formazan dye was measured at 540 nm. […]

[2] = tested on: Prostate carcinoma CRL 1435 (PC-3); test: MTT proliferation assay, prostate carcinoma PC-3; format: cell-based; conditions: Homo sapiens, treatment initially, after 48 hours, 10% FBS, read-out: Mean Percent Inhibition of Growth
Experimental: as §1, §2, §3

bcl-2 = test: Immunoblot for bcl-2; format: cell-based, human; conditions: cell lines studied; data not shown
Experimental: Cells were lysed and proteins were isolated and quantitated by immunoassay as previously detailed using 2 μg/ml of primary rabbit polyclonal antibodies against human bcl-2, p53, p21^WAF1/CiP1, cyclin A and cyclin B1, and peroxidase-labeled donkey polyclonal anti-rabbit IgG. Cells were placed on ice, washed twice with cold DPBS, scraped into 0.5 ml boiling buffer (10% [vol/vol] glycerol and 2% [wt/vol] sodium dodecyl sulfate [SDS] in 83 mM Tris, pH 6.8) and sheared by four passages through a pipette. Aliquots were removed for protein determination, using the BCA protein assay (Pierce). After 10% β-mercaptoethanol and 0.05% bromophenol blue were added, lysates were boiled for 5 min and stored at −80° C. until immunoblotting was performed. Proteins in defrosted samples were separated by SDS-polyacrylamide gel electrophoresis on 12% polyacrylamide gels (15 μg protein/lane) and electrotransferred to 0.45 μm Hybond ECL nitrocellulose membranes (Amersham Life Sciences) using the wet transblot method in transfer buffer (0.025 M Tris, 0.192 M glycine, 2.6 mM SDS, and 20%[vol/vol] methanol; pH 8.8) at 100 volts for 1 hour. […] Immunoblots were rinsed again as above and detected via an enhanced chemiluminescence method (ECL Western blotting detection system, Amersham Life Science, Buckinghamshire, England). […]

CCN(CC)C(=S)SSC(=S)N(CC)CC [Disulfiram, tetraethylthiuram disulfide]
inhibition at 0.625 µM ([1]; disulfiram 0.625 μM): 68 ± 3%
inhibition at 1.25 µM ([1]; disulfiram 1.25 μM): 76 ± 6%
inhibition at 2.5 µM ([1]; disulfiram 2.5 μM): 76 ± 5%
inhibition at 5 µM ([1]; disulfiram 5.0 μM): 72 ± 3%
inhibition at 0.625 µM ([2]; disulfiram 0.625 μM): 6 ± 6%
inhibition at 1.25 µM ([2]; disulfiram 1.25 μM): 29 ± 5%
inhibition at 2.5 µM ([2]; disulfiram 2.5 μM): 48 ± 2%
inhibition at 5 µM ([2]; disulfiram 5.0 μM): 86 ± 2%
expression of bcl-2 (bcl-2): no consistent effect

From patent US6548540B2, “Method of treating cancer using dithiocarbamate derivatives” (Charlotte-Mecklenburg Hospital Authority, priority 1998, dated 2003)
